± gives the expanded uncertainty stated by the source.
What was measured:
[1] = refractive index (Na D-line) (dimensionless); details: 101.3 kPa, Liquid, Standard Abbe refractometry
[2] = molar heat capacity at constant pressure; details: 101.33 kPa, Liquid, Small sample (50 mg) DSC
[3] = 101.3 kPa, Liquid; for speed of sound: Frequency=3 MHz, Sing-around technique in a fixed-path interferometer; for mass density: Vibrating tube method
[4] = refractive index (Na D-line) (dimensionless); xn = mol fraction of the nth substance listed; details: 101.3 kPa, Liquid, Standard Abbe refractometry, x2 = 0
[5] = xn = mol fraction of the nth substance listed; details: 101.3 kPa, Liquid, x2 = 0; for speed of sound: Frequency=3 MHz, Sing-around technique in a fixed-path interferometer; for mass density: Vibrating tube method

Row | Compound | refractive index ([1]; 298 K) | refractive index ([1]; 303 K) | refractive index ([1]; 308 K) | refractive index ([1]; 313 K) | speed of sound ([3]; 298 K) [m/s] | mass density ([3]; 298 K) [kg/m3] | speed of sound ([3]; 303 K) [m/s] | mass density ([3]; 303 K) [kg/m3] | refractive index ([4]; 298 K) | refractive index ([4]; 303 K) | refractive index ([4]; 308 K) | refractive index ([4]; 313 K) | speed of sound ([5]; 298 K) [m/s] | mass density ([5]; 298 K) [kg/m3] | speed of sound ([5]; 303 K) [m/s] | mass density ([5]; 303 K) [kg/m3] | speed of sound ([5]; 308 K) [m/s] | mass density ([5]; 308 K) [kg/m3] | speed of sound ([5]; 313 K) [m/s] | mass density ([5]; 313 K) [kg/m3] | other results
1 | COS(=O)(=O)[O-].Cn1cc[n+](C)c1 [1,3-dimethylimidazolium methylsulfate] | 1.483 ± 0.01 | 1.481 ± 0.01 | 1.48 ± 0.01 | 1.479 ± 0.01 | 1811 ± 20 | 1329 ± 4 | 1799 ± 20 | 1322 ± 4 |  |  |  |  |  |  |  |  |  |  |  |  | molar heat capacity at constant pressure ([2]; 298 K): 298.1 ± 40 J/K/mol; molar heat capacity at constant pressure ([2]; 303 K): 303.1 ± 40 J/K/mol; molar heat capacity at constant pressure ([2]; 308 K): 308 ± 40 J/K/mol; molar heat capacity at constant pressure ([2]; 313 K): 312.9 ± 40 J/K/mol; speed of sound ([3]; 308 K): 1787 ± 20 m/s; mass density ([3]; 308 K): 1319 ± 4 kg/m3; speed of sound ([3]; 313 K): 1775 ± 20 m/s; mass density ([3]; 313 K): 1315 ± 4 kg/m3
2 | CCn1cc[n+](C)c1.COS(=O)(=O)[O-] [1-ethyl-3-methylimidazolium methylsulfate] | 1.48 ± 0.01 | 1.479 ± 0.01 | 1.478 ± 0.01 | 1.476 ± 0.01 | 1762 ± 20 | 1292 ± 2 | 1750 ± 20 | 1289 ± 2 |  |  |  |  |  |  |  |  |  |  |  |  | molar heat capacity at constant pressure ([2]; 298 K): 313.3 ± 40 J/K/mol; molar heat capacity at constant pressure ([2]; 303 K): 319.9 ± 40 J/K/mol; molar heat capacity at constant pressure ([2]; 308 K): 326.6 ± 40 J/K/mol; molar heat capacity at constant pressure ([2]; 313 K): 333.2 ± 40 J/K/mol; speed of sound ([3]; 308 K): 1739 ± 20 m/s; mass density ([3]; 308 K): 1285 ± 2 kg/m3; speed of sound ([3]; 313 K): 1727 ± 20 m/s; mass density ([3]; 313 K): 1282 ± 2 kg/m3
3 | CCCCO [butan-1-ol] | 1.397 ± 0.01 | 1.395 ± 0.01 | 1.392 ± 0.01 | 1.389 ± 0.01 | 1240 ± 20 | 806 ± 2 | 1224 ± 20 | 802 ± 2 |  |  |  |  |  |  |  |  |  |  |  |  | speed of sound ([3]; 308 K): 1206 ± 20 m/s; mass density ([3]; 308 K): 798 ± 2 kg/m3; speed of sound ([3]; 313 K): 1190 ± 20 m/s; mass density ([3]; 313 K): 794 ± 2 kg/m3
4 | CCCCO [butan-1-ol] + CCn1cc[n+](C)c1.COS(=O)(=O)[O-] |  |  |  |  |  |  |  |  | 1.397 ± 0.01 | 1.395 ± 0.01 | 1.392 ± 0.01 | 1.389 ± 0.01 | 1240 ± 20 | 806 ± 2 | 1224 ± 20 | 802 ± 2 | 1206 ± 20 | 798 ± 2 | 1190 ± 20 | 794 ± 2 | 
5 | CCCCO [butan-1-ol] + COS(=O)(=O)[O-].Cn1cc[n+](C)c1 |  |  |  |  |  |  |  |  | 1.397 ± 0.01 | 1.395 ± 0.01 | 1.392 ± 0.01 | 1.389 ± 0.01 | 1240 ± 20 | 806 ± 2 | 1224 ± 20 | 802 ± 2 | 1206 ± 20 | 798 ± 2 | 1190 ± 20 | 794 ± 2 | 
6 | CCCCCO [pentan-1-ol] | 1.408 ± 0.01 | 1.407 ± 0.01 | 1.406 ± 0.01 | 1.404 ± 0.01 | 1276 ± 20 | 811 ± 2 | 1259 ± 20 | 807 ± 2 |  |  |  |  |  |  |  |  |  |  |  |  | speed of sound ([3]; 308 K): 1242 ± 20 m/s; mass density ([3]; 308 K): 803 ± 2 kg/m3; speed of sound ([3]; 313 K): 1226 ± 20 m/s; mass density ([3]; 313 K): 800 ± 2 kg/m3
7 | CCCCCO [pentan-1-ol] + CCn1cc[n+](C)c1.COS(=O)(=O)[O-] |  |  |  |  |  |  |  |  | 1.408 ± 0.01 | 1.407 ± 0.01 | 1.406 ± 0.01 | 1.404 ± 0.01 | 1276 ± 20 | 811 ± 2 | 1259 ± 20 | 807 ± 2 | 1242 ± 20 | 803 ± 2 | 1226 ± 20 | 800 ± 2 | 
8 | CCCCCO [pentan-1-ol] + COS(=O)(=O)[O-].Cn1cc[n+](C)c1 |  |  |  |  |  |  |  |  | 1.408 ± 0.01 | 1.407 ± 0.01 | 1.406 ± 0.01 | 1.404 ± 0.01 | 1276 ± 20 | 811 ± 2 | 1259 ± 20 | 807 ± 2 | 1242 ± 20 | 803 ± 2 | 1226 ± 20 | 800 ± 2 | 
9 | CCCO [propan-1-ol] | 1.383 ± 0.01 | 1.382 ± 0.01 | 1.38 ± 0.01 | 1.378 ± 0.01 | 1208 ± 20 | 800 ± 2 | 1191 ± 20 | 796 ± 2 |  |  |  |  |  |  |  |  |  |  |  |  | speed of sound ([3]; 308 K): 1174 ± 20 m/s; mass density ([3]; 308 K): 792 ± 2 kg/m3; speed of sound ([3]; 313 K): 1158 ± 20 m/s; mass density ([3]; 313 K): 789 ± 2 kg/m3
10 | CCCO [propan-1-ol] + CCn1cc[n+](C)c1.COS(=O)(=O)[O-] |  |  |  |  |  |  |  |  | 1.383 ± 0.01 | 1.382 ± 0.01 | 1.38 ± 0.01 | 1.378 ± 0.01 | 1208 ± 20 | 800 ± 2 | 1191 ± 20 | 796 ± 2 | 1174 ± 20 | 792 ± 2 | 1158 ± 20 | 789 ± 2 | 
11 | CCCO [propan-1-ol] + COS(=O)(=O)[O-].Cn1cc[n+](C)c1 |  |  |  |  |  |  |  |  | 1.383 ± 0.01 | 1.382 ± 0.01 | 1.38 ± 0.01 | 1.378 ± 0.01 | 1208 ± 20 | 800 ± 2 | 1191 ± 20 | 796 ± 2 | 1174 ± 20 | 792 ± 2 | 1158 ± 20 | 789 ± 2 | 
